Results taken from US20230152304A1 (SHENZHEN MINDRAY BIO-MEDICAL ELECTRONICS CO., LTD., priority 2020, published 2023).
Values belong to the compound of their own block, whether it stands above or below them.

Key:
[1] = pKa of the amino group of the compound
Description: For the compound having a plurality of amino groups/imino groups, the pKa of amino group described herein refers to the first dissociation constant, that is, pKa of amino group or imino group which firstly dissociates hydrogen ion.

[2] = system: aggregated platelets induced by ADP; assay: Platelet disaggregation rate of blood samples with ADP-induced platelet aggregation (hematology analyzer, PLT_O)
Description: The compounds in Table 1 above were respectively added to a diluent used for a hematology analyzer to prepare blood sample diluents. […] Each of the compounds in Table 1 (at a final concentration 0.01 mol/L) was added to the diluent separately, pH was adjusted to 14, and the osmotic pressure was adjusted to 200 mOsm/L to obtain the treatment solution.
The venous blood of a healthy subject was collected into blood anticoagulant tubes for later use. Two aliquot blood samples (1 ml/sample) were taken. The above-mentioned diluent was added to one of the samples, the resulting solution was mixed evenly, and then the platelet count was detected in a hematology analyzer (Mindray BC-6000Plus) and recorded as: PLT_O (unaggregated). The platelet aggregation inducer ADP (at a final concentration of 0.01 mmol/L) was added to the other sample, and the resulting solution was mixed evenly. Platelets were aggregated 5 min later, at this time the above-mentioned diluent was added, and then the blood containing the aggregated platelets was detected by the hematology analyzer to obtain the platelet count, which was recorded as: PLT_O (aggregated). Another 1 ml of blood sample was taken, the platelet aggregation inducer ADP (at a final concentration of 0.01 mmol/L) was added, and the resulting solution was mixed evenly. The above-mentioned treatment solution was added 5 min later, the resulting solution was mixed evenly, and then the platelet count of the treated blood was detected by the hematology analyzer and was recorded as: PLT_O (disaggregated).

[3] = Table 3, method of Example 1 (0.01 mol/L, pH 14, ADP 0.01 mmol/L)
[4] = Table 4, pH 8.18, method of Example 1
[5] = Table 4, pH 9.96, method of Example 1
[6] = Table 2, compound 0.01 mol/L, pH 14, ADP 0.01 mmol/L
[7] = FIG. 13, 10 mmol/L, pH 9.5, ADP 0.01 mmol/L
[8] = Table 4, pH 10.64, method of Example 1
[9] = Table 5, pH 9.5, method of Example 1

Compound: 1,3-diaminopropane
- pKa ([1]; Table 3): 10.4
- Platelet disaggregation rate [2, 3]: 91.14%

- pKa ([1]; Table 4): 7.93
Compound: 2-aminoacetamide
- Platelet disaggregation rate [2, 4]: 64.57%

Compound: 3-amino-1-propanol
- Platelet disaggregation rate [2, 5]: 81.43%

- pKa ([1]; pKa, Table 3): 5.5
Compound: Nc1cc(N)cc(N)c1 [1,3,5-triaminobenzene]
- Platelet disaggregation rate [2, 3]: 72.44%

Compound: CNCCO [2-(methylamino)ethanol]
- Platelet disaggregation rate [2, 6]: 82.49%%

Compound: CNCc1ccc(O)cc1 [4-[(methylamino)methyl]phenol]
- Platelet disaggregation rate [2, 6]: 59.43%

- pKa ([1]; pKa, Table 4): 10.4
Compound: NCCCC(=O)O [4-aminobutyric acid]

Compound: CCCCc1ccc(O)cc1 [4-butylphenol, reference compound]
- Platelet disaggregation rate [2, 6]: 9.43%

Compound: N.N.O=P(O)(O)O [(NH4)2HPO4, ammonium hydrogen phosphate]
- disaggregation effect [2, 7]: 99.25%

Compound: N.N.N.O=P(O)(O)O [(NH4)3PO4, ammonium phosphate]
- disaggregation effect [2, 7]: 94.87%

Compound: Br.N [NH4Br, ammonium bromide]
- disaggregation effect [2, 7]: 93.48%

Compound: N.N.O=C(O)C(=O)O [NH4C2O4, ammonium oxalate]
- disaggregation effect [2, 7]: 87.67%

Compound: N.O=P(O)(O)O [NH4H2PO4, ammonium dihydrogen phosphate]
- disaggregation effect [2, 7]: 86.24%

Compound: I.N [NH4I, ammonium iodide]
- disaggregation effect [2, 7]: 92.75%

Compound: N.O [NH4OH, ammonia water]
- disaggregation effect [2, 7]: 83.05%

Compound: N.N#CS [NH4SCN, ammonium thiocyanate]
- disaggregation effect [2, 7]: 85.78%

Compound: [Cl-].[Na+] [NaCl, reference compound]
- disaggregation effect [2, 7]: 18.90%

Compound: CC=O [acetaldehyde, reference compound]
- Platelet disaggregation rate [2, 6]: 16.54%

Compound: CC(N)=O [acetamide]
- Platelet disaggregation rate [2, 6]: 64.57%
- Platelet disaggregation rate [2, 3]: 44.44%

Compound: CC(=O)O [acetate, reference compound]
- Platelet disaggregation rate [2, 6]: 11.75%

Compound: CC(=O)CC(C)=O [acetylacetone, reference compound]
- Platelet disaggregation rate [2, 6]: 8.45%

Compound: Cl.N [ammonium chloride]
- disaggregation effect [2, 7]: 95.70%
- disaggregation effect ([2]; FIG. 14, 50 mmol/L (total for combination, equal parts), ADP 0.1 mmol/L): 66.27%
- disaggregation rate ([2]; Table 6, 0.01 mol/L, pH 4.0): 18.62%
- disaggregation rate ([2]; Table 6, 0.01 mol/L, pH 5.5): 31.70%
- disaggregation rate ([2]; Table 6, 0.01 mol/L, pH 6.5): 59.61%
- disaggregation rate ([2]; Table 6, 0.01 mol/L, pH 7.5): 94.05%
- disaggregation rate ([2]; Table 6, 0.01 mol/L, pH 8.5): 94.62%
- disaggregation rate ([2]; Table 6, 0.01 mol/L, pH 9.5): 95.70%
- disaggregation rate ([2]; Table 6, 0.01 mol/L, pH 11.0): 97.72%

Compound: Nc1ccccc1 [aniline]
- Platelet disaggregation rate [2, 3]: 56.26%

Compound: O=S(=O)(O)c1ccccc1 [benzenesulfonic acid, reference compound]
- Platelet disaggregation rate [2, 6]: 13.77%

Compound: CCCCN [butylamine]
- Platelet disaggregation rate [2, 3]: 87.53%
- Platelet disaggregation rate [2, 8]: 84.34%

Compound: CCCC(=O)O [butyric acid, reference compound]
- Platelet disaggregation rate [2, 6]: 11.45%

Compound: CC(=O)NC(C)=O [diacetamide]
- Platelet disaggregation rate [2, 6]: 75.43%

Compound: CCS(=O)(=O)O [ethanesulfonic acid, reference compound]
- Platelet disaggregation rate [2, 6]: 16.54%

Compound: CCO [ethanol, reference compound]
- Platelet disaggregation rate [2, 6]: 14.46%

Compound: NCCO [ethanolamine]
- Platelet disaggregation rate [2, 6]: 91.45%
- Platelet disaggregation rate [2, 3]: 86.45%
- Platelet disaggregation rate [2, 5]: 88.45%

Compound: C=O [formaldehyde, reference compound]
- Platelet disaggregation rate [2, 6]: 13.85%

Compound: NC(=O)CCC(N)C(=O)O (stereo not shown) [glutamine]
- Platelet disaggregation rate [2, 4]: 59.25%

Compound: NCC(=O)O [glycine]
- Platelet disaggregation rate [2, 6]: 65.47%
- Platelet disaggregation rate [2, 3]: 65.47%
- disaggregation rate [2, 9]: 70.47%

Compound: CCCN [n-propylamine]
- Platelet disaggregation rate [2, 8]: 85.53%

Compound: Oc1ccccc1 [phenol, reference compound]
- Platelet disaggregation rate [2, 6]: 8.44%

Compound: CNCC(=O)O [sarcosine]
- Platelet disaggregation rate [2, 6]: 64.75%

Compound: CC(=O)O.NC(CO)(CO)CO [tris(hydroxymethyl)aminomethane acetate]
- disaggregation rate [2, 9]: 75.23%

Compound: butanol [reference compound]
- Platelet disaggregation rate [2, 6]: 13.14%
